In the NIST ThermoML archive (doi:10.1016/j.jct.2015.12.028):
± gives the expanded uncertainty stated by the source.

Settings: Liquid, light scattering

CCCCCC(=O)OCC [ethyl hexanoate]
speed of sound (291.92 K, 7170 kPa): 1273.2 ± 13 m/s
speed of sound (292.04 K, 8640 kPa): 1284 ± 13 m/s
speed of sound (292.14 K, 10010 kPa): 1290.3 ± 13 m/s
speed of sound (293.41 K, 5690 kPa): 1255 ± 13 m/s
speed of sound (293.44 K, 4180 kPa): 1247.7 ± 13 m/s
speed of sound (294.37 K): 1220.1 ± 12 m/s
speed of sound (294.64 K, 100 kPa): 1224.2 ± 12 m/s
speed of sound (294.64 K, 1100 kPa): 1230.1 ± 12 m/s
speed of sound (294.84 K, 2620 kPa): 1239 ± 12 m/s
speed of sound (301.5 K, 2670 kPa): 1205.7 ± 12 m/s
speed of sound (301.55 K, 1070 kPa): 1195.5 ± 12 m/s
speed of sound (301.55 K): 1191 ± 12 m/s
speed of sound (301.56 K, 4130 kPa): 1214.4 ± 12 m/s
speed of sound (301.58 K, 7090 kPa): 1236.9 ± 12 m/s
speed of sound (301.6 K, 5650 kPa): 1225.7 ± 12 m/s
speed of sound (301.63 K, 8670 kPa): 1245.9 ± 13 m/s
speed of sound (301.73 K, 10030 kPa): 1258.6 ± 13 m/s
speed of sound (302.55 K, 100 kPa): 1189.8 ± 12 m/s
speed of sound (313.14 K, 9980 kPa): 1220.5 ± 12 m/s
speed of sound (313.24 K, 4030 kPa): 1185 ± 12 m/s
speed of sound (313.24 K, 8510 kPa): 1215.6 ± 12 m/s
speed of sound (313.25 K, 7000 kPa): 1205.4 ± 12 m/s
speed of sound (313.26 K, 5550 kPa): 1196.2 ± 12 m/s
speed of sound (313.28 K, 2510 kPa): 1175.2 ± 12 m/s
speed of sound (313.3 K, 100 kPa): 1155.3 ± 12 m/s
speed of sound (313.3 K, 1020 kPa): 1160.8 ± 12 m/s
speed of sound (313.34 K): 1152.7 ± 12 m/s
speed of sound (323.18 K, 10000 kPa): 1187.7 ± 12 m/s
speed of sound (323.28 K, 8470 kPa): 1179.1 ± 12 m/s
speed of sound (323.31 K, 2480 kPa): 1142.4 ± 11 m/s
speed of sound (323.31 K, 4010 kPa): 1149.9 ± 12 m/s
speed of sound (323.33 K, 6950 kPa): 1170 ± 12 m/s
speed of sound (323.35 K, 5480 kPa): 1162 ± 12 m/s
speed of sound (323.36 K, 100 kPa): 1120.8 ± 11 m/s
speed of sound (323.36 K, 1020 kPa): 1128.5 ± 11 m/s
speed of sound (324.26 K): 1115.1 ± 11 m/s
speed of sound (332.94 K, 8560 kPa): 1145.7 ± 12 m/s
speed of sound (332.97 K, 6950 kPa): 1135.6 ± 11 m/s
speed of sound (332.97 K, 10050 kPa): 1156.4 ± 12 m/s
speed of sound (332.99 K, 100 kPa): 1086.3 ± 11 m/s
speed of sound (332.99 K, 1060 kPa): 1090.1 ± 11 m/s
speed of sound (333.01 K, 2560 kPa): 1105.9 ± 11 m/s
speed of sound (333.04 K, 5580 kPa): 1125.1 ± 11 m/s
speed of sound (333.07 K, 4030 kPa): 1115.9 ± 11 m/s
speed of sound (333.16 K): 1077.6 ± 11 m/s
speed of sound (342.65 K, 2510 kPa): 1072.2 ± 11 m/s
speed of sound (342.67 K, 100 kPa): 1051.7 ± 11 m/s
speed of sound (342.67 K, 1000 kPa): 1054.8 ± 11 m/s
speed of sound (342.69 K, 3940 kPa): 1082.2 ± 11 m/s
speed of sound (342.71 K, 5500 kPa): 1094.5 ± 11 m/s
speed of sound (342.72 K, 8500 kPa): 1109.7 ± 11 m/s
speed of sound (342.74 K, 7030 kPa): 1099.1 ± 11 m/s
speed of sound (342.82 K, 9990 kPa): 1124.8 ± 11 m/s
speed of sound (343.2 K): 1046.1 ± 10 m/s
speed of sound (352.33 K, 100 kPa): 1017.1 ± 10 m/s
speed of sound (352.33 K, 1100 kPa): 1023 ± 10 m/s
speed of sound (352.33 K, 2540 kPa): 1038.4 ± 10 m/s
speed of sound (352.35 K, 4000 kPa): 1050.4 ± 11 m/s
speed of sound (352.41 K, 5530 kPa): 1061 ± 11 m/s
speed of sound (352.42 K, 7020 kPa): 1068.2 ± 11 m/s
speed of sound (352.43 K, 8490 kPa): 1080.4 ± 11 m/s
speed of sound (352.73 K, 10060 kPa): 1093.6 ± 11 m/s
speed of sound (353.08 K): 1010 ± 10 m/s
speed of sound (362.56 K, 100 kPa): 982.46 ± 9.9 m/s
speed of sound (362.56 K, 1000 kPa): 987.04 ± 9.9 m/s
speed of sound (362.56 K, 4010 kPa): 1015.1 ± 10 m/s
speed of sound (362.58 K, 8530 kPa): 1045.7 ± 11 m/s
speed of sound (362.6 K, 7060 kPa): 1033.4 ± 10 m/s
speed of sound (362.62 K, 5540 kPa): 1026 ± 10 m/s
speed of sound (362.64 K, 2530 kPa): 1000.9 ± 10 m/s
speed of sound (362.68 K, 10100 kPa): 1061.2 ± 11 m/s
speed of sound (363.12 K): 975 ± 9.8 m/s
speed of sound (372.53 K, 2500 kPa): 968.37 ± 9.7 m/s
speed of sound (372.54 K, 100 kPa): 947.78 ± 9.5 m/s
speed of sound (372.54 K, 1040 kPa): 952.55 ± 9.6 m/s
speed of sound (372.55 K, 7020 kPa): 1007.7 ± 10 m/s
speed of sound (372.56 K, 8530 kPa): 1016.3 ± 10 m/s
speed of sound (372.57 K, 5560 kPa): 998.43 ± 10 m/s
speed of sound (372.59 K, 4050 kPa): 985.39 ± 9.9 m/s
speed of sound (372.86 K, 9900 kPa): 1029.5 ± 10 m/s
speed of sound (373.14 K): 942 ± 9.5 m/s
speed of sound (382.71 K, 8540 kPa): 980 ± 9.9 m/s
speed of sound (382.73 K, 7020 kPa): 971.25 ± 9.8 m/s
speed of sound (382.74 K, 100 kPa): 913.07 ± 9.2 m/s
speed of sound (382.74 K, 1000 kPa): 922.72 ± 9.3 m/s
speed of sound (382.74 K, 5540 kPa): 962.72 ± 9.7 m/s
speed of sound (382.75 K, 4010 kPa): 952.21 ± 9.6 m/s
speed of sound (382.76 K, 2560 kPa): 934.6 ± 9.4 m/s
speed of sound (382.91 K, 9900 kPa): 997.44 ± 10 m/s
speed of sound (383.76 K): 905.4 ± 9.1 m/s
speed of sound (392.4 K, 5520 kPa): 933.47 ± 9.4 m/s
speed of sound (392.41 K, 7010 kPa): 940.67 ± 9.5 m/s
speed of sound (392.42 K, 8480 kPa): 949.6 ± 9.6 m/s
speed of sound (392.47 K, 100 kPa): 878.33 ± 8.8 m/s
speed of sound (392.47 K, 1030 kPa): 884.09 ± 8.9 m/s
speed of sound (392.47 K, 4000 kPa): 919.08 ± 9.2 m/s
speed of sound (392.51 K, 2490 kPa): 902.62 ± 9.1 m/s
speed of sound (392.92 K, 9950 kPa): 966.97 ± 9.8 m/s
speed of sound (393.3 K): 870.1 ± 8.8 m/s
speed of sound (402 K, 6970 kPa): 908.77 ± 9.2 m/s
speed of sound (402.03 K, 100 kPa): 843.55 ± 8.5 m/s
speed of sound (402.03 K, 1040 kPa): 854.91 ± 8.6 m/s
speed of sound (402.06 K, 2470 kPa): 868.02 ± 8.7 m/s
speed of sound (402.06 K, 4030 kPa): 883.34 ± 8.9 m/s
speed of sound (402.08 K, 8510 kPa): 919.03 ± 9.3 m/s
speed of sound (402.1 K, 5510 kPa): 899.47 ± 9.1 m/s
speed of sound (402.64 K): 834.9 ± 8.4 m/s
speed of sound (402.68 K, 10070 kPa): 936.79 ± 9.4 m/s
speed of sound (412.72 K, 100 kPa): 808.74 ± 8.2 m/s
speed of sound (412.72 K, 1040 kPa): 815.66 ± 8.2 m/s
speed of sound (412.8 K, 2570 kPa): 833.03 ± 8.4 m/s
speed of sound (412.88 K, 5600 kPa): 865.88 ± 8.7 m/s
speed of sound (412.88 K, 7020 kPa): 871.35 ± 8.8 m/s
speed of sound (412.89 K, 8470 kPa): 886.33 ± 8.9 m/s
speed of sound (412.91 K, 4020 kPa): 848.61 ± 8.6 m/s
speed of sound (412.99 K, 10030 kPa): 903.23 ± 9.1 m/s
speed of sound (413.59 K): 800.8 ± 8.1 m/s
speed of sound (423.69 K, 9950 kPa): 868.97 ± 8.8 m/s
speed of sound (423.96 K): 764 ± 7.7 m/s
speed of sound (423.99 K, 8470 kPa): 850.59 ± 8.6 m/s
speed of sound (424.01 K, 6980 kPa): 840.66 ± 8.5 m/s
speed of sound (424.04 K, 5530 kPa): 826.28 ± 8.3 m/s
speed of sound (424.11 K, 2540 kPa): 796.64 ± 8 m/s
speed of sound (424.11 K, 4010 kPa): 811.39 ± 8.2 m/s
speed of sound (424.14 K, 100 kPa): 773.9 ± 7.8 m/s
speed of sound (424.14 K, 1010 kPa): 774.99 ± 7.8 m/s
speed of sound (432.74 K, 8510 kPa): 826.01 ± 8.3 m/s
speed of sound (432.77 K, 7030 kPa): 813.37 ± 8.2 m/s
speed of sound (432.78 K, 5380 kPa): 798.35 ± 8.1 m/s
speed of sound (432.84 K, 9890 kPa): 842.12 ± 8.5 m/s
speed of sound (432.92 K, 3990 kPa): 780.75 ± 7.9 m/s
speed of sound (433.17 K, 100 kPa): 739.02 ± 7.5 m/s
speed of sound (433.17 K, 1030 kPa): 746.97 ± 7.5 m/s
speed of sound (433.17 K, 2510 kPa): 762.64 ± 7.7 m/s
speed of sound (433.99 K): 730.3 ± 7.4 m/s
speed of sound (442.85 K, 5610 kPa): 765.41 ± 7.7 m/s
speed of sound (442.88 K, 4100 kPa): 748.87 ± 7.6 m/s
speed of sound (442.9 K, 930 kPa): 715.97 ± 7.2 m/s
speed of sound (442.9 K, 2480 kPa): 729.4 ± 7.4 m/s
speed of sound (442.91 K, 6990 kPa): 777.33 ± 7.9 m/s
speed of sound (442.92 K, 8480 kPa): 791.24 ± 8 m/s
speed of sound (443.55 K): 697.6 ± 7 m/s
speed of sound (452.58 K, 5540 kPa): 735.89 ± 7.5 m/s
speed of sound (452.61 K, 7110 kPa): 747.91 ± 7.6 m/s
speed of sound (452.63 K, 8380 kPa): 764.36 ± 7.7 m/s
speed of sound (452.65 K, 4080 kPa): 717.86 ± 7.3 m/s
speed of sound (452.9 K): 661 ± 6.7 m/s
speed of sound (452.91 K, 2540 kPa): 695.59 ± 7 m/s
speed of sound (452.92 K, 1040 kPa): 677.79 ± 6.9 m/s
speed of sound (452.93 K, 10000 kPa): 781.61 ± 7.9 m/s
speed of sound (462.7 K, 7080 kPa): 715.1 ± 7.2 m/s
speed of sound (462.71 K, 4130 kPa): 682.75 ± 6.9 m/s
speed of sound (462.71 K, 8400 kPa): 730.25 ± 7.4 m/s
speed of sound (462.72 K, 5530 kPa): 700.28 ± 7.1 m/s
speed of sound (462.73 K, 2510 kPa): 660.98 ± 6.7 m/s
speed of sound (462.91 K, 10060 kPa): 751.22 ± 7.6 m/s
speed of sound (462.97 K, 960 kPa): 644.49 ± 6.5 m/s
speed of sound (463.1 K): 628.8 ± 6.4 m/s
speed of sound (471.93 K, 7050 kPa): 686.17 ± 7 m/s
speed of sound (471.94 K, 5520 kPa): 670.94 ± 6.8 m/s
speed of sound (471.95 K, 8260 kPa): 703.27 ± 7.1 m/s
speed of sound (472.03 K, 3960 kPa): 653.08 ± 6.6 m/s
speed of sound (472.05 K, 10050 kPa): 723.5 ± 7.3 m/s
speed of sound (472.29 K, 2600 kPa): 630.72 ± 6.4 m/s
speed of sound (472.41 K, 950 kPa): 612.74 ± 6.2 m/s
speed of sound (473.82 K): 592.4 ± 6 m/s
